Measured values taken from patent US12514832B2, “Methods for using low-dose colchicine after myocardial infarction” (INSTITUT DE CARDIOLOGIE DE MONTREAL, priority 2019, dated 2026).

System: patients recruited within 30 days after a myocardial infarction
Assay: COLCOT randomized, double-blind, placebo-controlled trial: clinical efficacy end points
Type: in vivo, human
Conditions: for risk of ischemic cardiovascular events / primary composite efficacy end point versus placebo (in words): 0.5 mg once daily; for Total primary endpoint events, Rate Ratio (95% CI), Negative binomial model: marginal rate ratio
Procedure: We performed a randomized, double-blind trial involving patients recruited within 30 days after a myocardial infarction. The patients were randomly assigned to receive either low-dose colchicine (0.5 mg once daily) or placebo. A total of 4745 patients were enrolled; 2366 patients were assigned to the colchicine group, and 2379 to the placebo group. Patients were followed for a median of 22.6 months.
The primary efficacy end point was a composite of death from cardiovascular causes, resuscitated cardiac arrest, myocardial infarction, stroke, or urgent hospitalization for angina leading to coronary revascularization. The components of the primary end point and safety were also assessed.
In this randomized, double-blind, placebo-controlled, investigator-initiated trial, we assigned patients in a 1:1 ratio to receive either colchicine (at a dose of 0.5 mg once daily) or placebo. The trial protocol, available at NEJM.org, was designed by a trial steering committee. The protocol was approved by the institutional review board at each of the 167 centers in the 12 countries that participated in the trial (available at NEJM.org). All trial support activities, including project coordination, data management, site monitoring, and statistical oversight and analyses, were performed at the Montreal Health Innovations Coordinating Center. Potential trial end-point events were adjudicated by an independent clinical end-point committee composed of experienced cardiologists and neurologists who were unaware of the trial-group assignments. The trial was overseen by a data and safety monitoring board of independent experts. The trial medication and matching placebo were provided by Pharmascience.
Patients were excluded if they had severe heart failure, a left ventricular ejection fraction of less than 35%, stroke within the previous 3 months, a type 2 index myocardial infarction, coronary-bypass surgery either within the previous 3 years or planned, a history of noncutaneous cancer within the previous 3 years, inflammatory bowel disease or chronic diarrhea, neuromuscular disease or a nontransient creatine kinase level that was greater than three times the upper limit of the normal range (unless due to infarction), clinically significant nontransient hematologic abnormalities, severe renal disease with a serum creatinine level that was greater than two times the upper limit of the normal range; severe hepatic disease, drug or alcohol abuse, current or planned long-term systemic glucocorticoid therapy, or a history of clinically significant sensitivity to colchicine. (Details regarding eligibility criteria are provided herein.)
The primary efficacy end point was a composite of death from cardiovascular causes, resuscitated cardiac arrest, myocardial infarction, stroke, or urgent hospitalization for angina leading to coronary revascularization in a time-to-event analysis.
The secondary end points consisted of the components of the primary efficacy end point; a composite of death from cardiovascular causes, resuscitated cardiac arrest, myocardial infarction, or stroke; and total mortality in time-to-event analyses. Coronary revascularization, hospitalization for heart failure, atrial fibrillation, and deep venous thrombosis or pulmonary embolus were prespecified as exploratory end points in the protocol.
The efficacy analyses were conducted with the use of positively adjudicated data and according to the intention-to-treat principle. The primary end point was compared between the two trial groups with the use of a log-rank test, and the hazard ratio from a Cox proportional-hazards model, with a 95% confidence interval, was calculated. A Cox proportional-hazards model with adjustment for important baseline characteristics was also used as prespecified in the protocol.
The analysis of the primary end point was repeated in the per-protocol population (i.e., patients without major protocol deviations). […]

[1] = ITT, N=2366, first and recurrent events
[2] = colchicine vs placebo, ITT, listed as colchicine
[3] = colchicine vs placebo, per-protocol population

## COc1cc2c(c(OC)c1OC)-c1ccc(OC)c(=O)cc1[C@@H](NC(C)=O)CC2 [Colchicine, colchicine]
  risk of ischemic cardiovascular events / primary composite efficacy end point versus placebo (in words): statistically significant lower risk of ischemic cardiovascular events than placebo
Listed as colchicine
  risk of ischemic cardiovascular events / primary composite efficacy end point versus placebo (in words): significantly lower percentage of patients with ischemic cardiovascular events than placebo
Colchicine vs. Placebo, multivariable Cox regression adjusted for age, diabetes, prior revascularization, prior heart failure
  Time to first primary endpoint, Adjusted Hazard Ratio (95% CI): 0.78 (0.62-0.98)
ITT, N=2366, 0.5 mg once daily
  Atrial fibrillation, number of patients: 36
  Atrial fibrillation, percent: 1.5%
  Death from cardiovascular causes, number of patients: 20
  Death from cardiovascular causes, percent: 0.8%
  Death, number of patients: 43
  Death, percent: 1.8%
  Deep venous thrombosis or pulmonary embolus, number of patients: 10
  Deep venous thrombosis or pulmonary embolus, percent: 0.4%
  Myocardial infarction, number of patients: 89
  Myocardial infarction, percent: 3.8%
  Primary composite end point, number of patients: 131
  Primary composite end point, percent of patients: 5.5%
  Resuscitated cardiac arrest, number of patients: 5
  Resuscitated cardiac arrest, percent: 0.2%
  Secondary composite end point (CV death, resuscitated cardiac arrest, MI, stroke), number of patients: 111
  Secondary composite end point, percent: 4.7%
  Stroke, number of patients: 5
  Stroke, percent: 0.2%
  Urgent hospitalization for angina leading to revascularization, number of patients: 25
  Urgent hospitalization for angina leading to revascularization, percent: 1.1%
ITT, N=2366, 52949 patient-months of follow-up
  Total number of primary endpoint events (first and recurrent): 154
[1]
  Number of patients with 0 primary endpoint events: 2235
  Number of patients with 1 primary endpoint event: 111
  Number of patients with 2 primary endpoint events: 18
  Number of patients with 3 primary endpoint events: 1
  Number of patients with 4 primary endpoint events: 1
  Rate of primary endpoint events per 100 patient-months: 0.29 per 100 patient-months
Colchicine vs placebo, ITT
  Atrial fibrillation, Hazard Ratio (95% CI): 0.93 (0.59-1.46)
  Death from cardiovascular causes, Hazard Ratio (95% CI): 0.84 (0.46-1.52)
  Death, Hazard Ratio (95% CI): 0.98 (0.64-1.49)
  Deep venous thrombosis or pulmonary embolus, Hazard Ratio (95% CI): 1.43 (0.54-3.75)
  Myocardial infarction, Hazard Ratio (95% CI): 0.91 (0.68-1.21)
  Resuscitated cardiac arrest, Hazard Ratio (95% CI): 0.83 (0.25-2.73)
  Secondary composite end point, Hazard Ratio (95% CI): 0.85 (0.66-1.10)
  Stroke, Hazard Ratio (95% CI): 0.26 (0.10-0.70)
  Total primary endpoint events, Hazard Ratio (95% CI), Andersen-Gill model: 0.69 (0.54; 0.88)
  Total primary endpoint events, Hazard Ratio (95% CI), WLW model 1st Event: 0.77 (0.61; 0.96)
  Total primary endpoint events, Hazard Ratio (95% CI), WLW model 2nd Event: 0.73 (0.48; 1.11)
  Total primary endpoint events, Hazard Ratio (95% CI), WLW model 3rd Event: 0.64 (0.37; 1.10)
  Total primary endpoint events, Hazard Ratio (95% CI), WLW model Average: 0.77 (0.61; 0.96)
  Urgent hospitalization for angina leading to revascularization, Hazard Ratio (95% CI): 0.50 (0.31-0.81)
  Total primary endpoint events, Rate Ratio (95% CI), Negative binomial model: 0.66 (0.51; 0.86)
[2]
  Total primary endpoint events, Rate Ratio (95% CI), Negative binomial model: 0.66
  Death from cardiovascular causes, Hazard Ratio (95% CI): 0.84
  Myocardial infarction, Hazard Ratio (95% CI): 0.91
  Resuscitated cardiac arrest, Hazard Ratio (95% CI): 0.83
  Secondary composite end point, Hazard Ratio (95% CI): 0.85
  Stroke, Hazard Ratio (95% CI): 0.26
  Urgent hospitalization for angina leading to revascularization, Hazard Ratio (95% CI): 0.50
Colchicine vs placebo, ITT, time to first event
  Primary composite end point, Hazard Ratio (95% CI): 0.77
Colchicine vs placebo, men, per-protocol population
  Primary endpoint, hazard ratio: 0.70 (0.52; 0.93)
[3]
  MI, Hazard Ratio (95% CI): 0.84 (0.62-1.14)
  Primary endpoint, Hazard Ratio (95% CI): 0.71 (0.56-0.90)
  Resuscitated cardiac arrest, Hazard Ratio (95% CI): 1.00 (0.29-3.46)
  Stroke, Hazard Ratio (95% CI): 0.26 (0.10-0.71)
  Urgent hospitalization for angina requiring revascularization, Hazard Ratio (95% CI): 0.47 (0.28-0.78)
Colchicine vs placebo, per-protocol population, listed as colchicine
  Primary endpoint, Hazard Ratio (95% CI): 0.71
Colchicine vs placebo, subgroup Active smoker
  Primary efficacy composite endpoint, Hazard ratio: 0.93
